Reference: patent US20240425464A1, “Substituted Monohydrazides as Potent Antifungal Agents” (University of Kentucky Research Foundation, priority 2023, published 2024)
≈ marks a conversion by molar mass, not a printed value. Read-outs that look alike come from different tables or passages of the source.

Legend:
[1] = test system: Candida krusei ATCC 6258 (I); test: MIC determination by in vitro antifungal assay; format: cell-based
Procedure: (§1) 10 mg/mL stock solutions of compounds 1a-9j were prepared in dimethyl sulfoxide (DMSO) and were stored at −20° C. in the dark. The antifungal agent amphotericin B (AmB) was purchased from VWR (Radnor PA, USA). AmB was dissolved in DMSO at a final concentration of 5 mg/mL and was stored at −20° C., protected from light. Candida albicans American Type Culture Collection (ATCC) 10231 (strain A), C. albicans ATCC 64124 (B), and C. albicans ATCC MYA-2876 (C) were obtained from Utah State University. C. albicans ATCC 90819 (D), C. albicans ATCC MYA-2310 (E), C. albicans ATCC MYA-1237 (F), C. albicans ATCC MYA-1003 (G), Candida glabrata ATCC 2001 (H), Candida krusei ATCC 6258 (I), Candida parapsilosis ATCC 22019 (J), Cryptococcus neoformans ATCC MYA-895 (M), Aspergillus terreus ATCC MYA-3633 (N), and Aspergillus flavus ATCC MYA-3631 (0) were obtained from the American Type Culture Collection (ATCC; Manassas, VA, USA). Aspergillus nidulans ATCC 38163 (P) was obtained from University of Kentucky. Clinically derived Aspergillus fumigatus NRRL 163 (Q), A. fumigatus NRRL 5109 (R), and A. fumigatus NRRL 6113 (S) were obtained from Northern Regional Research Laboratory (NRRL). Candida auris 384 (K), C. auris 390 (L), and fungal strains 381-400 (including 10 C. auris (AR Bank #381-390), 3 Candida duobushaemulonii (AR Bank #391, AR Bank #392, and AR Bank #394), 2 Candida haemulonii (AR Bank #393 and AR Bank #395), 1 Kodameae ohmeri (AR Bank #396), 1 C. krusei (AR Bank #397), 1 Candida lusitaniae (AR Bank #398), and 2 Saccharomyces cerevisiae strains (AR Bank #399 and AR Bank #400)) were part of a larger fungal library from the AR Bank maintained by the Centers for Disease Control and Prevention (CDC; Atlanta, GA, USA). Filamentous fungi and yeasts were cultivated at 35° C. in RPMI 1640 medium (with L-glutamine, without sodium bicarbonate, Sigma-Aldrich, St. Louis, MO) buffered to a pH of 7.0 with 0.165 M morpholinepropanesulfonic acid (MOPS) buffer (Sigma-Aldrich). For cytotoxicity assays, HepG2 and the mouse macrophage cell line J774A.1 were obtained from University of Kentucky. The human embryonic kidney cell line, HEK-293, was bought from the ATCC. Mammalian cells were grown in Dulbecco's Modified Eagle's Medium (DMEM) (from VWR) with 10% fetal bovine serum (FBS) (from VWR) and 1% Pen/Strep (from ATCC). Cell lines were cultured at 37° C. with 5% CO2 and passaged by trypsinization with 0.05% trypsin: 0.53 mM EDTA (from Sigma-Aldrich).
(§2) The MIC values of compounds 1a-9j against yeast cells (strains A-P and 381-400) were determined in 96-well plates as described in the CLSI documents M27-A3 and M38-A2 with minor modifications.^2 A single colony of freshly prepared yeast cells was used to inoculate 5 mL of yeast extract peptone dextrose (YPD) broth prior to incubation overnight with shaking at 200 rpm at 35° C. From the actively growing yeast culture, 100 µL were then transferred to 900 μL of RPMI 1640 medium and re-adjusted to achieve OD600 of 0.12 (˜1×10^6 CFU/mL). The cell suspension was further diluted to achieve 1:100 in RPMI 1640 medium. 100 μL of cells were added to the wells of a 96-well microtiter plates that contained 100 µL of the compound solution to obtain concentrations of 0.06-31.3 μg/mL of compounds 1a-9j or AmB prior to incubation for 48 h at 35° C. […]

[2] = test system: Candida glabrata ATCC 2001 (H); test: MIC determination by in vitro antifungal assay; format: cell-based; conditions: ATCC 2001 in text
Procedure: as §1, §2

[3] = test system: Candida parapsilosis ATCC 22019 (J); test: MIC determination by in vitro antifungal assay; format: cell-based
Procedure: as §1, §2

[4] = test system: C. albicans ATCC 10231 (strain A); test: MIC determination by in vitro antifungal assay (CLSI broth dilution); format: cell-based, Candida albicans; conditions: strain A = C. albicans ATCC 10231, no visible growth, 48 h at 35° C.
Procedure: as §1, §2

[5] = test system: Cryptococcus neoformans ATCC MYA-895 (M); test: MIC determination by in vitro antifungal assay; format: cell-based; conditions: strain M = C. neoformans ATCC MYA-895
Procedure, shortened: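 Twofold dilutions spanning 0.06–31.3 μg/mL were incubated with fungi for 48 h at 35° C in MOPS-buffered RPMI 1640 (pH 7.0), following modified CLSI M27-A3 and M38-A2 methods. Yeast cells were grown overnight in YPD, set to OD600 0.12 (~1×10^6 CFU/mL), then diluted 1:100.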

[6] = test system: Aspergillus nidulans ATCC 38163 (P); test: MIC determination by in vitro antifungal assay; format: cell-based
Procedure, shortened: (§3)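 Broth microdilution following CLSI M27-A3/M38-A2 with modifications, in RPMI 1640 buffered to pH 7.0 with 0.165 M MOPS. Yeast inoculum adjusted to OD600 0.12 and diluted 1:100. Compounds tested at 0.06–31.3 μg/mL by double dilution; incubation 48 h at 35° C.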

[7] = test system: Aspergillus flavus ATCC MYA-3631 (O); test: MIC determination by in vitro antifungal assay; format: cell-based; conditions: strain O = A. flavus ATCC MYA-3631
Procedure, shortened: as §3

[8] = Pichia kudriavzevii, ATCC6258, strain I = C. krusei ATCC 6258, read-out: MIC
[9] = Nakaseomyces glabratus, ATCC 2001 / ATCC 2004, strain H = C. glabrata ATCC 2004 (footnote), read-out: MIC
[10] = Lodderomyces parapsilosis, ATCC22019, strain J = C. parapsilosis ATCC 22019, read-out: MIC
[11] = Candida albicans, ATCC10231, 48 h, read-out: MIC
[12] = Cryptococcus neoformans, read-out: MIC
[13] = Aspergillus nidulans, ATCC38163, strain P = A. nidulans ATCC 38163, read-out: MIC
[14] = Aspergillus flavus, read-out: MIC
[15] = strain H = C. glabrata ATCC 2004 (footnote)
[16] = strain J = C. parapsilosis ATCC 22019
[17] = strain P = A. nidulans ATCC 38163

| Structure (SMILES) | MIC [1, 8] [µg/mL] | MIC [2, 9] [µg/mL] | MIC [3, 10] [µg/mL] | MIC [4, 11] [µg/mL] | MIC [5, 12] [µg/mL] | MIC [6, 13] [µg/mL] | MIC [7, 14] [µg/mL] | MIC ([1]; strain I = C. krusei ATCC 6258) [μg/mL^−1] | MIC [2, 15] [μg/mL^−1] | MIC [3, 16] [μg/mL^−1] | MIC [4] [μg/mL^−1] | MIC [5] [μg/mL^−1] | MIC [6, 17] [μg/mL^−1] | MIC [7] [μg/mL^−1] |
| --- | --- | --- | --- | --- | --- | --- | --- | --- | --- | --- | --- | --- | --- | --- |
| O=C(NNc1cc(Cl)cc(Cl)c1)c1ccccn1 [Compound 2j] | 0.98 (≈ 3.47 µM) | 7.8 (≈ 27.6 µM) | 1.95 (≈ 6.91 µM) | 0.24 (≈ 0.851 µM) | 0.49 (≈ 1.74 µM) | 0.49 (≈ 1.74 µM) | > 31.3 | – | – | – | – | – | – | – |
| O=C(NNc1cccc(F)c1)c1ccc(F)cn1 [Compound 3a] | – | – | – | – | – | – | – | 0.24 | 31.3 | 1.95 | 0.49 | ≤0.06 | 0.98 | 7.8 |
| O=C(NNc1ccc(F)cc1)c1ccc(F)cn1 [Compound 3d] | – | – | – | – | – | – | – | 0.49 | 15.6 | 3.9 | 0.49 | 0.98 | 0.98 | 15.6 |
| O=C(NNc1ccc(Cl)cc1)c1ccc(F)cn1 [Compound 3e] | – | – | – | – | – | – | – | 0.98 | 7.8 | 31.3 | 1.95 | 3.9 | 15.6 | >31.3 |
| COc1ccc(NNC(=O)c2ccc(F)cn2)cc1 [Compound 3f] | – | – | – | – | – | – | – | 0.24 | 1.95 | 3.9 | 0.24 | ≤0.06 | 1.95 | >31.3 |
| O=C(NNc1ccc(F)cc1F)c1ccc(F)cn1 [Compound 3g] | 0.98 (≈ 3.67 µM) | 31.3 (≈ 117 µM) | 31.3 (≈ 117 µM) | 0.49 (≈ 1.83 µM) | 0.98 (≈ 3.67 µM) | 0.98 (≈ 3.67 µM) | 15.6 (≈ 58.4 µM) | – | – | – | – | – | – | – |
| O=C(NNc1cccc(F)c1)c1ccc(Br)cn1 [Compound 4a] | – | – | – | – | – | – | – | 0.24 | >31.3 | 7.8 | 0.49 | 0.06 | 1.95 | 15.6 |
| COc1cccc(NNC(=O)c2ccc(Br)cn2)c1 [Compound 4c] | 0.24 (≈ 0.745 µM) | 15.6 (≈ 48.4 µM) | 3.9 (≈ 12.1 µM) | 0.98 (≈ 3.04 µM) | 0.49 (≈ 1.52 µM) | 1.95 (≈ 6.05 µM) | > 31.3 | – | – | – | – | – | – | – |
| O=C(NNc1ccc(F)cc1)c1ccc(Br)cn1 [Compound 4d] | 0.98 (≈ 3.16 µM) | > 31.3 | 7.8 (≈ 25.2 µM) | 1.95 (≈ 6.29 µM) | 0.98 (≈ 3.16 µM) | 1.95 (≈ 6.29 µM) | 15.6 (≈ 50.3 µM) | – | – | – | – | – | – | – |
| COc1ccc(NNC(=O)c2ccc(Br)cn2)cc1 [Compound 4f] | 0.98 (≈ 3.04 µM) | 1.95 (≈ 6.05 µM) | 3.9 (≈ 12.1 µM) | 3.9 (≈ 12.1 µM) | 1.95 (≈ 6.05 µM) | 15.6 (≈ 48.4 µM) | > 31.3 | – | – | – | – | – | – | – |
| O=C(NNc1ccc(F)cc1F)c1ccc(Br)cn1 [Compound 4g] | 0.49 (≈ 1.49 µM) | 7.8 (≈ 23.8 µM) | 3.9 (≈ 11.9 µM) | 3.9 (≈ 11.9 µM) | 1.95 (≈ 5.94 µM) | 3.9 (≈ 11.9 µM) | > 31.3 | – | – | – | – | – | – | – |
| O=C(NNc1cccc(F)c1)c1cccc(F)n1 [Compound 5a] | – | – | – | – | – | – | – | 0.24 | 31.3 | 7.8 | 0.49 | ≤0.06 | 0.98 | >31.3 |
| O=C(NNc1ccc(F)cc1)c1cccc(F)n1 [Compound 5d] | 0.49 (≈ 1.97 µM) | 15.6 (≈ 62.6 µM) | 3.9 (≈ 15.6 µM) | 0.24 (≈ 0.963 µM) | 0.49 (≈ 1.97 µM) | 0.98 (≈ 3.93 µM) | 7.8 (≈ 31.3 µM) | – | – | – | – | – | – | – |
| O=C(NNc1ccc(Cl)cc1)c1cccc(F)n1 [Compound 5e] | – | – | – | – | – | – | – | 1.95 | 3.9 | 15.6 | 1.95 | 1.95 | 7.8 | >31.3 |
| COc1ccc(NNC(=O)c2cccc(F)n2)cc1 [Compound 5f] | 0.49 (≈ 1.88 µM) | 0.98 (≈ 3.75 µM) | 7.8 (≈ 29.9 µM) | 0.24 (≈ 0.919 µM) | 0.24 (≈ 0.919 µM) | 1.95 (≈ 7.46 µM) | > 31.3 | – | – | – | – | – | – | – |
| O=C(NNc1ccc(F)cc1F)c1cccc(F)n1 [Compound 5g] | 0.98 (≈ 3.67 µM) | 31.3 (≈ 117 µM) | 31.3 (≈ 117 µM) | 0.98 (≈ 3.67 µM) | 0.49 (≈ 1.83 µM) | 0.49 (≈ 1.83 µM) | 31.3 (≈ 117 µM) | – | – | – | – | – | – | – |
| O=C(NNc1cccc(F)c1)c1cccc(Br)n1 [Compound 6a] | – | – | – | – | – | – | – | 0.49 | >31.3 | 1.95 | 0.49 | ≤0.06 | 1.95 | 31.3 |
| O=C(NNc1ccc(F)cc1)c1cccc(Br)n1 [Compound 6d] | 0.49 (≈ 1.58 µM) | > 31.3 | 7.8 (≈ 25.2 µM) | 0.98 (≈ 3.16 µM) | 0.98 (≈ 3.16 µM) | 0.98 (≈ 3.16 µM) | 15.6 (≈ 50.3 µM) | – | – | – | – | – | – | – |
| COc1ccc(NNC(=O)c2cccc(Br)n2)cc1 [Compound 6f] | 0.98 (≈ 3.04 µM) | 1.95 (≈ 6.05 µM) | 3.9 (≈ 12.1 µM) | 1.95 (≈ 6.05 µM) | 1.95 (≈ 6.05 µM) | 3.9 (≈ 12.1 µM) | > 31.3 | – | – | – | – | – | – | – |
| O=C(NNc1cccc(F)c1)c1ncc(F)cc1F [Compound 7a] | – | – | – | – | – | – | – | 0.24 | 31.3 | 1.95 | 0.24 | ≤0.06 | 0.98 | >31.3 |
| COc1cccc(NNC(=O)c2ncc(F)cc2F)c1 [Compound 7c] | 15.6 (≈ 55.9 µM) | 15.6 (≈ 55.9 µM) | 15.6 (≈ 55.9 µM) | 0.98 (≈ 3.51 µM) | 15.6 (≈ 55.9 µM) | 15.6 (≈ 55.9 µM) | > 31.3 | – | – | – | – | – | – | – |
| O=C(NNc1ccc(F)cc1)c1ncc(F)cc1F [Compound 7d] | 0.49 (≈ 1.83 µM) | 15.6 (≈ 58.4 µM) | 3.9 (≈ 14.6 µM) | 0.98 (≈ 3.67 µM) | 0.49 (≈ 1.83 µM) | 0.49 (≈ 1.83 µM) | 7.8 (≈ 29.2 µM) | – | – | – | – | – | – | – |
